Measurements published in US10745365B2, “Luminogenic and fluorogenic compounds and methods to detect molecules or conditions” (Promega Corporation, priority 2005, dated 2020).
Each block holds one molecule with its values, some of them ahead of it.

What was measured:
Type in all cases: biochemical
[1] = biological target: T1, beta-glucuronidase (GUS) (Homo sapiens, UniProt P08236); test: Beta-glucuronidase (GUS) assay
T1 construct: purchased Sigma-Aldrich
T1 sequence (P08236 23-651): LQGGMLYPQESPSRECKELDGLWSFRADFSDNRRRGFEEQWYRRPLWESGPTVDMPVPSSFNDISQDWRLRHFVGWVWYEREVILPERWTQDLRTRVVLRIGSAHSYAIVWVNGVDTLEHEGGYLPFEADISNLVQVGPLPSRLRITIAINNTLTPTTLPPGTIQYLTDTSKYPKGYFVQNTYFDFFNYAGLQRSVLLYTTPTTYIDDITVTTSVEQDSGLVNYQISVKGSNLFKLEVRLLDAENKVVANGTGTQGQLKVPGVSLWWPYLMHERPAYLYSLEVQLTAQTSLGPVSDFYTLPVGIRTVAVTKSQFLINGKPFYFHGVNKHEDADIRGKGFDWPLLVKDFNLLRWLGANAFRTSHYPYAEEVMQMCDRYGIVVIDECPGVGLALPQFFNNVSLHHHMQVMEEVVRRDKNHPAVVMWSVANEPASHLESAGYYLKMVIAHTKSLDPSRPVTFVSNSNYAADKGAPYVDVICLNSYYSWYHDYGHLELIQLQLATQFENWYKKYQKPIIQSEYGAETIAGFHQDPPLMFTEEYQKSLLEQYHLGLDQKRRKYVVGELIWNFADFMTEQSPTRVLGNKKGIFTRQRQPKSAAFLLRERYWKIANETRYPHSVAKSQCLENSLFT
Procedure: The source of the human enzyme was Sigma-Aldrich. GUS was incubated with the substrate in 50 mM MES, pH 6.3, for 15 minutes.

[2] = biological target: T2, yeast alcohol dehydrogenase (Saccharomyces cerevisiae, UniProt P00330); test: Conversion of luciferol by yeast alcohol dehydrogenase; conditions: room temperature
T2 construct: purchased Sigma Chem Co. A 7011
T2 sequence (P00330 1-348): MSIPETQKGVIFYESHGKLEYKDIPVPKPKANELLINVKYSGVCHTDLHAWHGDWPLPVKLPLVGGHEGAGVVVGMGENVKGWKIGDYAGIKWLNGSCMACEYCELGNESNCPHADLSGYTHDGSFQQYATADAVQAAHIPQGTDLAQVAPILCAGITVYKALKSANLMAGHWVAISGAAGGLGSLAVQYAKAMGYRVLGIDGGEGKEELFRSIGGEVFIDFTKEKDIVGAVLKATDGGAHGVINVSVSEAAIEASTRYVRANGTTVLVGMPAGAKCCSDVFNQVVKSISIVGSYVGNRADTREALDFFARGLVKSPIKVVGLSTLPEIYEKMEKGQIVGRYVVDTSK
Procedure: A luciferin derivative, luciferol, was employed as a substrate for alcohol dehydrogenase (ADH). The derivative was tested in a two step format. For the first step, the derivative was added to a mixture with one of four ADHs. At different times after the reaction was initiated, a portion was removed and mixed with a luciferase reaction mixture. Reactions in which light production increased over time indicate that luciferol is a substrate for the ADH in that reaction.
Y ADH solution: 7500 units of yeast alcohol dehydrogenase (Sigma Chem Co. A 7011) was dissolved in 1 ml of 50 mM Bis Tris pH 6.5.
NAD+ solution: 66 mg of NAD+(Sigma Chem. Co. N 1511-250) was dissolved in 2 ml of Bis Tris, pH 6.5 and 8 ml of water.
Luciferol solution: approximately 4 mg of luciferol was dissolved in 1 ml of dimethylformamide (Aldrich 27,054-7).
AU reactions were kept at room temperature.

[3] = tested on: panel of recombinant human P450s; test: Two-step luminescent screen of luciferin derivatives against a panel of recombinant human P450s and HLM; conditions: 50 μM substrate, panel of FIGS. 17-18
Procedure: P450s are Supersomes™ purchased from Discovery Labware (BD/Gentest). […] HLM is human liver microsomes.
1× substrate concentration: 50 μM.
The HLM reactions contained […] reaction, except where indicated otherwise. Control insect cell membranes were at 50 μg/50 μL.
For FIG. 20, the panel of human P450s was screened as described above.

[4] = biological target: T3, GST M1-1 (Homo sapiens, UniProt P09488, K173N); test: Luminescent GST assay with GST M1-1; conditions: light generating reaction
T3 construct: purchased Sigma
T3 sequence (P09488 1-218 K173N): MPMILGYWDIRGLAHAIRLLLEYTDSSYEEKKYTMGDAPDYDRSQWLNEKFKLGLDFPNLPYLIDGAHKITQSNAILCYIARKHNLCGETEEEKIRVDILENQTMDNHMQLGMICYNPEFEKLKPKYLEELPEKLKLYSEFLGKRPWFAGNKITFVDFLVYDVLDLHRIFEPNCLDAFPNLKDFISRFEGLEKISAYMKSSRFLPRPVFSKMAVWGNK

signal-to-noise, fluorescence ([1]; [GUS] 4.3 ng/ml): 7.5
signal-to-noise, fluorescence ([1]; [GUS] 8.7 ng/ml): 15.6
signal-to-noise, fluorescence ([1]; [GUS] 34.7 ng/ml): 76.5
signal-to-noise, fluorescence ([1]; [GUS] 69.4 ng/ml): 164.6
signal-to-noise, fluorescence ([1]; [GUS] 138.8 ng/ml): 376.8
signal-to-noise, fluorescence ([1]; [GUS] 277.5 ng/ml): 861.4
Molecule: Cc1cc(=O)oc2cc(O[C@@H]3O[C@H](C(=O)O)[C@@H](O)[C@H](O)[C@H]3O)ccc12 [4-methylumbelliferyl glucuronide]

Molecule: OC[C@H]1CSC(c2nc3ccc(O)cc3s2)=N1 [luciferol]
Light produced ([2]; Rx 7: 5 μl yeast ADH, 30 minutes after luciferol addition): 6.184
Light produced ([2]; Rx 7: 5 μl yeast ADH, 60 minutes after luciferol addition): 6.052
Light produced ([2]; Rx 7: 5 μl yeast ADH, 95 minutes after luciferol addition): 5.980
Light produced ([2]; Rx 7: 5 μl yeast ADH, 190 minutes after luciferol addition): 6.640
Light produced ([2]; Rx 7: 5 μl yeast ADH, 280 minutes after luciferol addition): 7.988
Light produced ([2]; Rx 8: 10 μl yeast ADH, 30 minutes after luciferol addition): 6.126
Light produced ([2]; Rx 8: 10 μl yeast ADH, 60 minutes after luciferol addition): 5.468
Light produced ([2]; Rx 8: 10 μl yeast ADH, 95 minutes after luciferol addition): 5.552
Light produced ([2]; Rx 8: 10 μl yeast ADH, 190 minutes after luciferol addition): 6.198
Light produced ([2]; Rx 8: 10 μl yeast ADH, 280 minutes after luciferol addition): 6.903
Light produced ([2]; Rx 9: 20 μl yeast ADH, 30 minutes after luciferol addition): 5.406
Light produced ([2]; Rx 9: 20 μl yeast ADH, 60 minutes after luciferol addition): 5.608
Light produced ([2]; Rx 9: 20 μl yeast ADH, 95 minutes after luciferol addition): 6.301
Light produced ([2]; Rx 9: 20 μl yeast ADH, 190 minutes after luciferol addition): 5.825
Light produced ([2]; Rx 9: 20 μl yeast ADH, 280 minutes after luciferol addition): 6.734
Light produced ([2]; Rx 10: 20 μl yeast ADH, 10 μl luciferol, 30 minutes after luciferol addition): 9.672
Light produced ([2]; Rx 10: 20 μl yeast ADH, 10 μl luciferol, 60 minutes after luciferol addition): 9.531
Light produced ([2]; Rx 10: 20 μl yeast ADH, 10 μl luciferol, 95 minutes after luciferol addition): 10.00
Light produced ([2]; Rx 10: 20 μl yeast ADH, 10 μl luciferol, 190 minutes after luciferol addition): 10.36
Light produced ([2]; Rx 10: 20 μl yeast ADH, 10 μl luciferol, 280 minutes after luciferol addition): 11.71

Molecule: COc1ccc2nc(C3=N[C@@H](C(=O)NN)CS3)sc2c1 [luciferin-6-methylether hydrazide]
P450 enzyme activity / selectivity (words) [3]: good selectivity for CYP 1A2 over the other P450s tested

P450 enzyme activity / selectivity (words) [3]: preference for 2C19, 1A1 and 1A2
Molecule: O=C(OCc1cccnc1)[C@H]1CSC(c2nc3ccccc3s2)=N1 [carboxyl picolinyl ester of luciferin-H]

Molecule: O=C(O)C1CSC(c2nc3ccc(OCc4cccc(CN5CCN(c6ccccc6)CC5)c4)cc3s2)=N1 (stereo not drawn) [Luciferin 3-(4-phenylpiperazin-1-yl)methylbenzyl ether]
P450 enzyme activity / selectivity (words) [3]: selective for three members of the CYP3A subfamily, CYP3A4, CYP3A5 and CYP3A7
P450 enzyme activity / selectivity (words) ([3]; listed as 6′(3-((4-phenylpiperizin-1-yl))methyl)benzyloxy) luciferin): did not cross react with 4F1 2

P450 enzyme activity / selectivity (words) [3]: preference for 2D6, 1A1 and 1A2
Molecule: COc1ccc2nc(C3=NC(C(=O)OCc4cccnc4)CS3)sc2c1 (stereo not drawn)

Molecule: COC(=O)[C@H]1CSC(c2nc3ccccc3s2)=N1 [carboxyl methyl ester of deoxyluciferin]
P450 enzyme activity / selectivity (words) [3]: substantial activity with CYP2C19 and strong selectivity for this enzyme over the others tested

Molecule: COC(=O)[C@H]1CSC(c2ccc3cc(Oc4ccc(C(F)(F)F)cc4[N+](=O)[O-])ccc3n2)=N1 [GST-4, Methyl 6-(2-nitro-4-trifluoromethyl-phenoxy)quinolinyl-luciferin ester]
GST preference [4]: better substrate for GST M1-1 in a light generating reaction than GST A1-1

Molecule: 4-methyl-6-(O-methyl)-luciferin
P450 enzyme activity / selectivity (words) [3]: enhanced selectivity for 1 A2, 2C8 and 2C9

P450 enzyme activity / selectivity (words) [3]: strong selectivity for CYP1A1
Molecule: O=C(Nc1ccc2nc(C3=NC(C(=O)O)CS3)sc2c1)OCc1ccccc1 (stereo not drawn) [N-benzyloxycarbonyl aminoluciferin]

Molecule: 4-(O-methyl)-6-(O-methyl)-luciferin
P450 enzyme activity / selectivity (words) [3]: enhanced selectivity for 1 A2, 2C8 and 2C9

P450 enzyme activity / selectivity (words) [3]: substrate for 4A11
Molecule: COc1ccc2nc(C3=NC(C(=O)O)CS3)cnc2c1 (stereo not drawn) [quinoxalylluciferin 6-methyl ether]

P450 enzyme activity / selectivity (words) [3]: preferred substrate for 1A2 and 4A1 1
P450 enzyme activity / selectivity (words) ([3]; listed as quinolyl luciferin-6-methyl ether): enhanced selectivity for CYP4A11
Molecule: COc1ccc2nc(C3=NC(C(=O)O)CS3)ccc2c1 (stereo not drawn) [Quinolylluciferin 6-methyl ether]

Molecule: O=C(O)[C@H]1CSC(c2nc3ccc(OCc4ccccc4C(F)(F)F)cc3s2)=N1 [6′(o-trifluoromethylbenzyloxy)-luciferin]
P450 enzyme activity / selectivity (words) [3]: selective for three members of the CYP3A subfamily, CYP3A4, CYP3A5 and CYP3A7
P450 enzyme activity / selectivity (words) ([3]; listed as 6—O-trifluoromethylbenzyl luciferin): showed substantial activity with CYP3A4 and did not show substantial cross reactivity with CYP4F12

Molecule: O=C(O)[C@H]1CSC(c2ccc3cc(OCOCc4ccccc4)ccc3n2)=N1 [6′benzyloxymethoxy-quinolylluciferin]
P450 enzyme activity / selectivity (words) [3]: selective for three members of the CYP3A subfamily, CYP3A4, CYP3A5 and CYP3A7

Molecule: O=C(O)C1CSC(c2ccc3cc(OCc4ccccc4)ccc3n2)=N1 (stereo not drawn) [quinolylluciferin 6-benzyl ether]
P450 enzyme activity / selectivity (words) [3]: preferred substrate for 3A7, and to a lesser degree a substrate for 3A4 and 2C8

P450 enzyme activity / selectivity (words) [3]: showed selectivity for CYP3A7
Molecule: O=C(O)[C@H]1CSC(c2nc3ccc(OCSc4ccc(Cl)cc4)cc3s2)=N1 [6′-p-chlorophenylthiol-methoxy-luciferin, 6-(4-Chloro-phenylthiomethoxy)luciferin]

Molecule: CC(C)COC(=O)Nc1ccc2nc(C3=NC(C(=O)O)CS3)sc2c1 (stereo not drawn) [N-isobutoxycarbonyl aminoluciferin]
P450 enzyme activity / selectivity (words) [3]: strong selectivity for CYP1A1
